The subject of test [1] is B. burgdorferi N40. The test is described as follows: C3H mice infected with Borrelia burgdorferi, cell counts in skin tissue. Format: in vivo. Conditions: for # of B. burgdorferi cells in 100 mg skin tissue: 5 days of dosing. The procedure:
C3H mice (Charles River Laboratories) are used in classical Lyme disease infection model. Mice were rested for more than 1 day after delivery before infected with 10^5 B. burgdorferi N40 cells by subcutaneous injection. Infection was established for 3 weeks. 100 μl of saline, ceftriaxone or hygromycin A was administered by IP injection. Compounds of the invention can also be tested for efficacy as described herein.
Ceftriaxone (USP grade) was purchased from Sigma-Aldrich. Saline was purchased from Baxter Healthcare. Ceftriaxone powder was dissolved into saline to 31.2 mg/ml solution. Hygromycin A stock solution at 200 mg/ml was diluted into saline to make 50 mg/ml (250 mg/kg), 15 mg/ml (75 mg/kg), 14 mg/ml (70 mg/kg), 10 mg/ml (50 mg/kg) and 5 mg/ml (25 mg/kg) solutions.
In the B. burgdorferi mice infection model, skin is the tissue with highest bacterial burden. After sacrificing mice 2 days after 5 days of dosing, we took 100 mg skin tissue from mouse ear, homogenized the tissue and plated on BSK-II semi-agar plates for cell number counts. No colony appearing on the plates is considered as clearance of the infection.

Test [2] has as its system Borrelia garinii. The test is described as follows: microbroth dilution MIC. Type of test: cell-based. Conditions: Borreliella garinii. The text has this: (§1) AH MIC testing of bacteria followed the Clinical and Laboratory Standards Institute (CLSI) guidelines for antimicrobial testing of aerobic, bacteria (Methods for Dilution Antimicrobial Susceptibility Tests for Bacteria that Grow Aerobically; Approved Standard—Tenth Edition, M07-A10; Performance Standards for Antimicrobial Susceptibility Testing; Twenty-fifth Informational Supplement, M100-S25), and guidelines for antimicrobial testing of anaerobic bacteria (Methods for Antimicrobial Susceptibility Testing of Anaerobic Bacteria, 8th Edition. M11-A8). Compounds of the invention can also be tested for activity as described herein.
(§2) Briefly, the microbroth dilution MIC method was used to quantitatively measure the in vitro antibacterial activity of hygromycin A against the given bacterial isolates shown in the table below. S. aureus, E. coli and P. aeruginosa were grown in cation-adjusted Mueller-Hinton broth, anaerobes were grown in Schaedler Anaerobe Media, Borrelia species were grown in BSK-II medium. Bacteria from liquid cultures were diluted into the assay plate to achieve 5×10^5 CFU/mL. Assays plates were prepared by 2-fold dilution of compound across the plate and included a positive growth control. […] Borrelia species were incubated in a microaerophilic chamber at 34° C. for 5-7 days and scored visually for medium color change from pink to yellow of the phenol red present in the medium. The lowest concentration of antibiotics that pre vented color change was interpreted, as the MIC.
For orientation: Broth dilution looks for growth in wells or tubes with falling amounts of substance.

The test system of test [3] is Lactobacillus reuteri. The test is described as follows: microbroth dilution MIC. Format: cell-based. Conditions: Limosilactobacillus reuteri.
Source text: as §1, §2

For test [4], the system named is Enterococcus faecalis. The test is described as follows: microbroth dilution MIC. Format: cell-based.
Source text: as §1, §2

The test system of test [5] is Borrelia burgdorferi. The test is described as follows: microbroth dilution MIC. Conditions: Borreliella burgdorferi. Type of test: cell-based.
Source text: as §1, §2

The test system of test [6] is S. aureus. The test is described as follows: microbroth dilution MIC. Format: cell-based. The conditions noted are these: Staphylococcus aureus.
Source text: as §1, §2

Test [7] has as its system Bacteroides fragilis. The test is described as follows: microbroth dilution MIC. Format: cell-based.
Source text: as §1, §2

The subject of test [8] is Borrelia turcica. The test is described as follows: microbroth dilution MIC. Type of test: cell-based.
Source text: as §1, §2

The test system of test [9] is Borrelia bavariensis. The test is described as follows: microbroth dilution MIC. Format: cell-based. The conditions noted are these: Borreliella bavariensis.
Source text: as §1, §2

Test [10] deals with Borrelia afzelii. The test is described as follows: microbroth dilution MIC. Format: cell-based. The conditions noted are these: Borreliella afzelii.
Source text: as §1, §2

In test [11] the test system is E. coli. The test is described as follows: microbroth dilution MIC. The conditions noted are these: Escherichia coli. Type of test: cell-based.
Source text: as §1, §2

Test [12] has as its system Bifidobacterium longum. The test is described as follows: microbroth dilution MIC. Format: cell-based.
Source text: as §1, §2

For test [13], the system named is P. aeruginosa. The test is described as follows: microbroth dilution MIC. Type of test: cell-based. Conditions: Pseudomonas aeruginosa.
Source text: as §1, §2

Values after ≈ are worked out from the molar mass of the structure shown.

Broadly, the MIC is the least concentration at which growth counts as inhibited. Read a low MIC as a more susceptible organism.

Consider `CC(=O)[C@H]1O[C@@H](Oc2ccc(/C=C(\C)C(=O)N[C@@H]3[C@H](O)[C@@H](O)[C@H]4OCO[C@H]4[C@@H]3O)cc2O)[C@@H](O)[C@@H]1O` [Hygromycin A], for which the “# of B. burgdorferi cells in 100 mg skin tissue” value in test [1] (25 mg/kg Oral gavage), in test [1] (50 mg/kg Oral gavage), in test [1] (70 mg/kg Oral gavage), in test [1] (75 mg/kg IP injection) and in test [1] (250 mg/kg Oral gavage) was under 1 in each case. Besides, the “clearance of the Borrelia burgdorferi infection” value in [1] (5 days of treatment, both IP injection and oral gavage) is “cleared the Borrelia burgdorferi infection”. Moreover, the MIC came out at 0.25 µg/mL (≈ 0.489 µM) in [2]; 32 µg/mL (≈ 62.6 µM) in test [3]; 128 µg/mL (≈ 250 µM) in [4]; 0.12 µg/mL (≈ 0.235 µM) in test [5]; 32 µg/mL (≈ 62.6 µM) in [6]; 128 µg/mL (≈ 250 µM) in [7]. In addition, the MIC is 0.25 µg/mL (≈ 0.489 µM) in test [8]; 0.25 µg/mL (≈ 0.489 µM) in test [9]; 0.25 µg/mL (≈ 0.489 µM) in test [10]; 1000 µg/mL (≈ 1960 µM) in test [11]; 8 µg/mL (≈ 15.6 µM) in [12]; over 1000 µg/mL in [13].

The record behind these values is patent US12233081B2, “Hygromycin a compounds and methods of treating spirochete diseases” (priority 2018, dated 2025).
